In assay [1] the target is T1, PaMTADA (Pseudomonas aeruginosa, UniProt Q9HZ64). In kind it is biochemical.
For assay [2], the system named is PaMTADA. Format: biochemical, Pseudomonas aeruginosa. Particulars: times higher than PfADA.
The subject of assay [3] is PfADA. The note with it: substrate; ref Ting et al. [13]; cited from earlier work.
Assay [4] deals with human ADA. Particulars: cited from earlier work.
The subject of another assay is bovine ADA. Particulars: result in words; cited from earlier work.
Assay [5] has as its target PfADA. The note with it: cited from earlier work.
Assay [6] has as its target human ADA. The note with it: cited from earlier work; for inhibition of human ADA: result in words.
Assay [7] concerns the target T2, PaMTADA (Pseudomonas aeruginosa, UniProt Q9HZ64).
T2 sequence (Q9HZ64 1-444): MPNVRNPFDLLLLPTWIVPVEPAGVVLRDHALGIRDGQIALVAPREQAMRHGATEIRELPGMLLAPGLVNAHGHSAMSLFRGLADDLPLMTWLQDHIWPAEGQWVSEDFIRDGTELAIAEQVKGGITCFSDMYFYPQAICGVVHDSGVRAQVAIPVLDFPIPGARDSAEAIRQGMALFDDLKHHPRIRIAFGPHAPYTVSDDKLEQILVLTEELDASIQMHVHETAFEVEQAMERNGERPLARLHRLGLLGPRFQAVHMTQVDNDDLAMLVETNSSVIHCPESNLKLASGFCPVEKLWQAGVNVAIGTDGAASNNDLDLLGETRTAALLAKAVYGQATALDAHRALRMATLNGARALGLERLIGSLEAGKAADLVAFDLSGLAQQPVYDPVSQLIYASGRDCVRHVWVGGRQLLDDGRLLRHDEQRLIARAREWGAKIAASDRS
Briefly: Inhibition of PaMTADA activity in cell lysates. In kind it is biochemical, P. aeruginosa PAO1. The note with it: cell lysate, 50 nM inhibitor.

Assay [8] has as its target T3, cellular PaMTADA activity (Pseudomonas aeruginosa, UniProt Q9HZ64).
T3 sequence (Q9HZ64 1-444): T2 sequence (Q9HZ64 1-444)
Briefly: Inhibition of cellular PaMTADA. In kind it is cell-based, P. aeruginosa PAO1.

The subject of another assay is P. aeruginosa PAO1. Briefly: Growth of P. aeruginosa PAO1 with or without MTCF. Particulars: up to 1 μM, 36 hours, 37 °C. Format: cell-based.
Assay [9] concerns PfADA. Briefly: Inhibition of PfADA. In kind it is biochemical, Plasmodium falciparum. The note with it: times weaker than CF.
The target in assay [10] is T1, PaMTADA. Format: biochemical. The note with it: times weaker than MTDCF.
Where [11] appears, read: substrate, ref Tyler et al. [16].
Where [12] appears, read: read-out: Ki* from slow-onset inhibition, Ki* values.
The mark [13] stands for this setting: equilibrium dissociation constant.

Broadly, the Km is the concentration of substrate that gives half-maximal velocity. By kcat is commonly meant the number of substrate molecules converted per active site and unit of time at saturation. For orientation: Ki means a measure of affinity in units of concentration, obtained from inhibition or displacement.

“And” between values parts separate entries of the source, which are not always exact repeats. Identical values can stand only once. “Also recorded” adds a separate entry of the source. Like-named read-outs stand apart in the source and are kept apart here.

For the molecule 5′-methylthioadenosine [MTA], at PaMTADA [1] (MTA over adenosine), the “catalytic efficiency (kcat/Km) for MTA relative to adenosine” value turned out to be 40 fold. Also, the Km is 1.5 ± 0.3 µM on PaMTADA [1] (substrate, 25 °C, pH 7.4) and 170 ± 20 µM with PfADA [3]. For the same molecule, the kcat on PaMTADA [1] (substrate, 25 °C, pH 7.4) was 24.6 s⁻¹ and 24.6 ± 0.8 s⁻¹; in the assay on PfADA [3], 15.0 ± 0.9 s⁻¹; in the assay with human ADA [4] (setting [11]) it was under 0.02 s⁻¹. Besides, the “catalytic efficiency of PaMTADA on MTA relative to PfADA” value in the assay on PaMTADA [2] stood at 160 times. For the same molecule, in the assay with human ADA [4] (result in words), the “use as substrate by human ADA” value is on record as “do not utilize”. In addition, the “use as substrate by bovine ADA” value in the assay with bovine ADA is “do not utilize”.

For the molecule `OC[C@H]1O[C@@H](n2cnc3c2N=CNC[C@H]3O)[C@H](O)[C@@H]1O` [Coformycin (CF), (2R,3R,4S,5R)-2-((R)-8-hydroxy-7,8-dihydroimidazo[4,5-d][1,3]diazepin-3(6H)-yl)-5-(hydroxymethyl)tetrahydrofuran-3,4-diol, reference compound], the Ki at PfADA [5] (setting [12]) was 0.08 ± 0.02 nM; on human ADA [6] (setting [12]), 0.11 ± 0.02 nM.

Regarding `CSC[C@H]1O[C@@H](n2cnc3c2N=CNC[C@H]3O)[C@H](O)[C@@H]1O` [MTCF, 5′-methylthiocoformycin], at PaMTADA [7], the “degradation of MTA” value is “completely blocked”. The PaMTADA activity result in [8] (500 nM MTCF in LB medium plus 100 nM MTCF added to cell lysate) is on record as “All PaMTADA activity was inhibited”. In addition, in assay [8] (MTCF in LB medium), the “concentration of maximal inhibition” value was 10 nM. Also, the “effect on cell growth based on OD600” value with P. aeruginosa PAO1 is reported as “no effect”. For the same molecule, the Ki at PfADA [5] (setting [12]) was 0.4 ± 0.1 nM; at human ADA [6] (setting [13]), over 10000 nM. Further, the “inhibition of human ADA” value with human ADA [6] is given as “no significant inhibition; also recorded: no inhibitory effect; also recorded: no significant inhibitory effects”.

As to `CSC[C@H]1O[C@@H](n2cnc3c2N=CNC[C@H]3O)C[C@@H]1O` [MTDCF, 5′-methylthio-2′-deoxycoformycin], the “binding affinity for PfADA relative to CF” value with PfADA [9] is on record as 9 times. Besides, the Ki at PfADA [5] (setting [12]) was 0.7 ± 0.2 nM; at human ADA [6] (setting [13]), over 10000 nM. Besides, the “inhibition of human ADA” value with human ADA [6] is recorded as “no inhibitory effect”.

Turning to `O[C@@H]1CNC=Nc2c1ncn2[C@H]1C[C@H](O)[C@@H](CSc2ccccc2)O1` [PhTDCF, 5′-phenylthio-2′-deoxycoformycin], the Ki on PfADA [5] (setting [13]) is 60 ± 10 nM.

For the molecule `CCCSC[C@H]1O[C@@H](n2cnc3c2N=CNC[C@H]3O)C[C@@H]1O` [PrTDCF, 5′-propylthio-2′-deoxycoformycin], the “binding to PaMTADA relative to MTDCF” value on PaMTADA [10] is 8 times. Further, in the assay with PfADA [9], the “binding affinity for PfADA relative to CF” value is reported as 150 times. In addition, the values for the Ki on PfADA [5] (setting [13]) and at human ADA [6] (setting [13]) were 12 ± 1 nM and over 10000 nM, respectively.

As for `Nc1ncnc2c1ncn2[C@@H]1O[C@H](CO)[C@@H](O)[C@H]1O` [adenosine], the kcat on PaMTADA [1] (substrate, 25 °C, pH 7.4) is 17 ± 1 s⁻¹; with PfADA [3] it was 1.8 ± 0.1 s⁻¹; with human ADA [4] (setting [11]) it was 36 ± 1 s⁻¹. Besides, in the assay with human ADA [4] (setting [11]), the Km was 22 ± 3 µM.
